Test results as given in ChEMBL document CHEMBL4196028, “Synthesis and biological evaluation of 20-epi-amino-20-deoxysalinomycin derivatives” (Eur J Med Chem, 2018).

Assay: physchem
Conditions: n-octanol/water

Compound	logP
CC[C@@H](C(=O)[C@@H](C)[C@@H](O)[C@H](C)[C@@H]1O[C@@H]([C@@H](CC)C(=O)OCC[Si](C)(C)C)CC[C@@H]1C)[C@H]1O[C@]2(C=C[C@H](n3cc(COC(C(F)(F)F)(C(F)(F)F)C(F)(F)F)nn3)[C@]3(CC[C@@](C)([C@H]4CC[C@](O)(CC)[C@H](C)O4)O3)O2)[C@H](C)C[C@@H]1C	1.95
CC[C@@H](C(=O)[C@@H](C)[C@@H](O)[C@H](C)[C@@H]1O[C@@H]([C@@H](CC)C(=O)O)CC[C@@H]1C)[C@H]1O[C@]2(C=C[C@H](NC(=O)OCc3ccccc3)[C@]3(CC[C@@](C)([C@H]4CC[C@](O)(CC)[C@H](C)O4)O3)O2)[C@H](C)C[C@@H]1C	1.77
CC[C@@H](C(=O)[C@@H](C)[C@@H](O)[C@H](C)[C@@H]1O[C@@H]([C@@H](CC)C(=O)O)CC[C@@H]1C)[C@H]1O[C@]2(C=C[C@@H](O)[C@]3(CC[C@@](C)([C@H]4CC[C@](O)(CC)[C@H](C)O4)O3)O2)[C@H](C)C[C@@H]1C [SALINOMYCIN]	2.21
